How the values were obtained:
Test in all cases: Test B pre-/postemergence plant response
Assay type in all cases: in vivo
[1] = system: corn (Zea mays)
Method in brief: (§1)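 Pre-em in loam/sand; post-em at 1–4 leaf (2–18 cm) in peat mix. Solvent + surfactant formulation. Greenhouse 13–15 d; visual % control vs untreated, 0–100.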

[2] = system: Surinam grass (Brachiaria decumbens)
Method in brief: as §1

[3] = system: downy bromegrass (Bromus tectorum)
Method in brief: as §1

[4] = system: green foxtail (Setaria viridis)
Method in brief: as §1

[5] = system: goosegrass (Eleusine indica)
Method in brief: as §1

[6] = system: woolly cupgrass (Eriochloa villosa)
Method in brief: as §1

[7] = system: lambsquarters (Chenopodium album)
Method in brief: as §1

[8] = system: giant foxtail (Setaria faberii)
Method in brief: as §1

[9] = system: Italian ryegrass (Lolium multiflorum)
Method in brief: as §1

[10] = system: bermudagrass (Cynodon dactylon)
Method in brief: as §1

[11] = system: blackgrass (Alopecurus myosuroides)
Method in brief: as §1

[12] = system: velvetleaf (Abutilon theophrasti)
Method in brief: as §1

[13] = system: ragweed (common ragweed, Ambrosia elatior)
Method in brief: as §1

[14] = system: yellow nutsedge (Cyperus esculentus)
Method in brief: as §1

[15] = system: kochia (Kochia scoparia)
Method in brief: as §1

[16] = system: johnsongrass (Sorghum halepense)
Method in brief: as §1

[17] = system: large crabgrass (Digitaria sanguinalis)
Method in brief: as §1

[18] = 31 g ai/ha, postemergence, scale 0 to 100, 0 is no effect, 100 is complete control
[19] = 62 g ai/ha, postemergence, 0 is no effect, 100 is complete control, 13 to 15 days
[20] = Postemergence, 125 g ai/ha, visual rating after 13 to 15 days, scale 0 (no effect) to 100 (complete control)
[21] = Postemergence, 250 g ai/ha, scale 0 to 100 (0 no effect, 100 complete control)
[22] = Preemergence, 31 g ai/ha, scale 0 to 100 (0 no effect, 100 complete control)
[23] = Preemergence, 62 g ai/ha, scale 0 to 100, 0 no effect, 100 complete control
[24] = Preemergence, 125 g ai/ha, scale 0 to 100, 0 no effect, 100 complete control
[25] = Preemergence, 250 g ai/ha, 0 to 100 scale

CCCCn1c(CCC)ncc(C(=O)C2=C(O)CCCC2=O)c1=O [Compound 75]
Plant response rating, Corn [1, 18]: 0 | Corn plant response rating (0 to 100 scale) [1, 19]: 0 | Plant response rating, Corn [1, 20]: 20 | Plant response rating, Corn [1, 21]: 55 | Plant response rating, Corn [1, 22]: 0 | Plant response rating, Corn [1, 23]: 0 | Plant response rating, Corn [1, 24]: 0 | Corn plant response rating [1, 25]: 0 | Plant response rating, Surinam Grass [2, 18]: 50 | Surinam Grass plant response rating (0 to 100 scale) [2, 19]: 50 | Plant response rating, Surinam Grass [2, 20]: 70 | Plant response rating, Surinam Grass [2, 21]: 85 | Plant response rating, Surinam Grass [2, 22]: 40 | Plant response rating, Surinam Grass [2, 23]: 60 | Plant response rating, Surinam Grass [2, 24]: 60 | Surinam Grass plant response rating [2, 25]: 75 | Plant response rating, Bromegrass, Downy [3, 18]: 5 | Bromegrass, Downy plant response rating (0 to 100 scale) [3, 19]: 20 | Plant response rating, Bromegrass, Downy [3, 20]: 35 | Plant response rating, Bromegrass, Downy [3, 21]: 50 | Plant response rating, Bromegrass, Downy [3, 22]: 0 | Plant response rating, Bromegrass, Downy [3, 23]: 0 | Plant response rating, Bromegrass, Downy [3, 24]: 0 | Bromegrass, Downy plant response rating [3, 25]: 0 | Plant response rating, Foxtail, Green [4, 18]: 65 | Foxtail, Green plant response rating (0 to 100 scale) [4, 19]: 85 | Plant response rating, Foxtail, Green [4, 20]: 90 | Plant response rating, Foxtail, Green [4, 21]: 90 | Plant response rating, Foxtail, Green [4, 22]: 5 | Plant response rating, Foxtail, Green [4, 23]: 50 | Plant response rating, Foxtail, Green [4, 24]: 50 | Foxtail, Green plant response rating [4, 25]: 98 | Plant response rating, Goosegrass [5, 18]: 75 | Goosegrass plant response rating (0 to 100 scale) [5, 19]: 80 | Plant response rating, Goosegrass [5, 20]: 95 | Plant response rating, Goosegrass [5, 21]: 98 | Plant response rating, Goosegrass [5, 22]: 95 | Plant response rating, Goosegrass [5, 23]: 100 | Plant response rating, Goosegrass [5, 24]: 100 | Goosegrass plant response rating [5, 25]: 100 | Plant response rating, Cupgrass, Woolly [6, 18]: 10 | Cupgrass, Woolly plant response rating (0 to 100 scale) [6, 19]: 55 | Plant response rating, Cupgrass, Woolly [6, 20]: 55 | Plant response rating, Cupgrass, Woolly [6, 21]: 80 | Plant response rating, Cupgrass, Woolly [6, 22]: 5 | Plant response rating, Cupgrass, Woolly [6, 24]: 55 | Cupgrass, Woolly plant response rating [6, 25]: 75 | Plant response rating, Lambsquarters [7, 18]: 98 | Lambsquarters plant response rating (0 to 100 scale) [7, 19]: 100 | Plant response rating, Lambsquarters [7, 20]: 100 | Plant response rating, Lambsquarters [7, 21]: 100 | Plant response rating, Lambsquarters [7, 22]: 98 | Plant response rating, Lambsquarters [7, 23]: 100 | Plant response rating, Lambsquarters [7, 24]: 100 | Lambsquarters plant response rating [7, 25]: 100 | Plant response rating, Foxtail, Giant [8, 18]: 75 | Foxtail, Giant plant response rating (0 to 100 scale) [8, 19]: 80 | Plant response rating, Foxtail, Giant [8, 20]: 85 | Plant response rating, Foxtail, Giant [8, 21]: 95 | Plant response rating, Foxtail, Giant [8, 22]: 0 | Plant response rating, Foxtail, Giant [8, 23]: 25 | Plant response rating, Foxtail, Giant [8, 24]: 80 | Foxtail, Giant plant response rating [8, 25]: 80 | Plant response rating, Ryegrass, Italian [9, 18]: 0 | Ryegrass, Italian plant response rating (0 to 100 scale) [9, 19]: 15 | Plant response rating, Ryegrass, Italian [9, 20]: 40 | Plant response rating, Ryegrass, Italian [9, 21]: 60 | Plant response rating, Ryegrass, Italian [9, 22]: 0 | Plant response rating, Ryegrass, Italian [9, 23]: 0 | Plant response rating, Ryegrass, Italian [9, 24]: 0 | Ryegrass, Italian plant response rating [9, 25]: 0 | Plant response rating, Bermudagrass [10, 18]: 90 | Bermudagrass plant response rating (0 to 100 scale) [10, 19]: 98 | Plant response rating, Bermudagrass [10, 20]: 98 | Plant response rating, Bermudagrass [10, 21]: 98 | Plant response rating, Bermudagrass [10, 22]: 98 | Plant response rating, Bermudagrass [10, 23]: 100 | Plant response rating, Bermudagrass [10, 24]: 100 | Bermudagrass plant response rating ([10]; Preemergence, 250 g ai/ha, 0 to 100 scale, 0 no effect, 100 complete control): 100 | Plant response rating, Blackgrass [11, 18]: 0 | Blackgrass plant response rating (0 to 100 scale) [11, 19]: 0 | Plant response rating, Blackgrass [11, 20]: 0 | Plant response rating, Blackgrass [11, 21]: 20 | Plant response rating, Blackgrass [11, 22]: 0 | Plant response rating, Blackgrass [11, 23]: 0 | Plant response rating, Blackgrass [11, 24]: 5 | Blackgrass plant response rating [11, 25]: 10 | Plant response rating, Velvetleaf [12, 18]: 100 | Velvetleaf plant response rating (0 to 100 scale) [12, 19]: 100 | Plant response rating, Velvetleaf [12, 20]: 100 | Plant response rating, Velvetleaf [12, 21]: 100 | Plant response rating, Velvetleaf [12, 22]: 100 | Plant response rating, Velvetleaf [12, 23]: 100 | Plant response rating, Velvetleaf [12, 24]: 100 | Velvetleaf plant response rating [12, 25]: 100 | Plant response rating, Ragweed [13, 18]: 80 | Ragweed plant response rating (0 to 100 scale) [13, 19]: 85 | Plant response rating, Ragweed [13, 20]: 90 | Plant response rating, Ragweed [13, 21]: 95 | Plant response rating, Ragweed [13, 22]: 75 | Plant response rating, Ragweed [13, 23]: 75 | Plant response rating, Ragweed [13, 24]: 95 | Ragweed plant response rating [13, 25]: 95 | Plant response rating, Nutsedge, Yellow [14, 18]: 10 | Nutsedge, Yellow plant response rating (0 to 100 scale) [14, 19]: 65 | Plant response rating, Nutsedge, Yellow [14, 20]: 70 | Plant response rating, Nutsedge, Yellow [14, 21]: 75 | Plant response rating, Nutsedge, Yellow [14, 22]: 60 | Plant response rating, Nutsedge, Yellow [14, 23]: 80 | Plant response rating, Nutsedge, Yellow [14, 24]: 90 | Nutsedge, Yellow plant response rating [14, 25]: 90 | Plant response rating, Kochia [15, 18]: 75 | Kochia plant response rating (0 to 100 scale) [15, 19]: 95 | Plant response rating, Kochia [15, 20]: 100 | Plant response rating, Kochia [15, 21]: 100 | Plant response rating, Kochia [15, 22]: 80 | Plant response rating, Kochia [15, 23]: 90 | Plant response rating, Kochia [15, 24]: 90 | Kochia plant response rating [15, 25]: 95 | Plant response rating, Johnsongrass [16, 18]: 0 | Johnsongrass plant response rating (0 to 100 scale) [16, 19]: 10 | Plant response rating, Johnsongrass [16, 20]: 20 | Plant response rating, Johnsongrass [16, 21]: 75 | Plant response rating, Johnsongrass [16, 22]: 0 | Plant response rating, Johnsongrass [16, 23]: 10 | Plant response rating, Johnsongrass [16, 24]: 65 | Johnsongrass plant response rating [16, 25]: 70 | Plant response rating, Crabgrass, Large [17, 18]: 95 | Crabgrass, Large plant response rating (0 to 100 scale) [17, 19]: 98 | Plant response rating, Crabgrass, Large [17, 20]: 100 | Plant response rating, Crabgrass, Large [17, 21]: 100 | Plant response rating, Crabgrass, Large [17, 22]: 98 | Plant response rating, Crabgrass, Large [17, 23]: 100 | Plant response rating, Crabgrass, Large [17, 24]: 100 | Crabgrass, Large plant response rating [17, 25]: 100

From patent US8952024B2, “Herbicidal pyrimidone derivatives” (E I du Pont de Nemours and Company, priority 2009, dated 2015)
